Source: patent US20080131432A1, “Method of treating the chemotoxic effects of chemotherapeutic drugs on brain tissue” (University of Kentucky Research Foundation, priority 2005, published 2008)
“Also recorded” adds a separate entry of the source.

Legend:
[1] = tested on: MnSOD; settings: wild-type mice
[2] = tested on: TNF α; assay: TNF α levels in serum (mouse TNF-α ELISA); format: in vivo
Protocol: Mice were treated with 20 mg/kg ADR or saline as control. Blood samples were collected at 1, 3, 6, 9, 24 hours and allowed to clot at 2-8° C. overnight. Serum samples were used to measure TNF α levels, according to the mouse enzyme-linked immunosorbent assay following the manufacturers' instructions (mouse TNF-α/TNFSF1A immunoassay, R&D Systems, Minneapolis, MN). The TNF α concentration in the sample was calculated from a recombinant mouse TNF α standard curve. The minimum detection limit is typically less than 5.1 pg/mL.
8-week-old male B6C3 mice (25-30 g) were kept under standard conditions. Mice were injected with a single intraperitoneal (i.p.) treatment with adriamycin (doxorubicin hydrochloride, 20 mg/kg), TNF-α, anti-mouse TNF-antibody (40 ng/kg), dipropylenetriamine NONOate (DPTA NONOate, […]), lipopolysaccharide (LPS 1 mg/kg), NG-nitro-L-arginine-methyl esther (L-NAME, 10 mg/kg) or pre-immune IgG.
Mice were treated with 20 mg/kg ADR, TNF-α, anti-mouse TNF-antibody, dipropylenetriamine NONOate, lipopolysaccharide, NG-nitro-L-arginine-methyl esther or pre-immune IgG, as well as saline as control. Blood samples were collected at 3 hours after ADR treatment and allowed to clot at 2-8° C. overnight. Serum samples were used to measure TNF levels, according to the mouse enzyme-linked immunosorbent assay following the manufacturers' instructions (mouse TNF-α/TNFSF1A immunoassay, R&D Systems, Minneapolis, Minn.). The TNF concentration in the sample was calculated from a recombinant mouse TNF standard curve. The minimum detection limit is typically less than 5.1 pg/mL.

[3] = tested on: iNOS mRNA; assay: iNOS mRNA expression in brain tissues (RT-PCR); format: in vivo, mouse; settings: wild-type mice, 3 hours after treatment, vs saline controls
Protocol: At 3 hours after treatment, mice were anesthetized and perfused via cardiac puncture with 0.1 M PBS, pH 7.4. The MRNA was isolated using the Micro-FastTrack 2.0 Kit (Invitrogen, Groningen, Netherlands) according to the manufacturer's instructions. The purified MRNA (5 μg) was subjected to reverse-transcription into first strand cDNA in each 20 μL of reaction mixture using the SuperScript III First-Strand Synthesis System for RT-PCR (Invitrogen) according to the manufacturer's instruction. A 25 μL PCR reaction contained 5 μL first strand cDNA, 0.1 U Taq DNA polymerase (Invitrogen), 10 mM 10×PCR buffer, 1.5 mM MgCl2, 2.5 mM dNTP and 10 pmol of each specific primer. PCR samples were subjected to the following conditions: 35 cycles for iNOS (94° C.: 1 minute; 65° C.: 1 minute; 72° C.: 1 minute), 32 cycles for β-actin (94° C.: […]; 55° C.: 30 s; 72° C.: 10 minutes), on a thermocycle (Perkin-Elmer). The primers with the target gene sequences were synthesized by Invitrogen. The primer sequence iNOS was 5′-CTGATGGTCAAGATCCAG-A-GGTCT-3′ (forward) and 5′-[…]-CTCT-3′(reverse), and the primer for β-actin was 5′-TGTTAC-CAACTGGGACGACA-3′ (forward) and 5′-CTGGGTCATCTT-TTCACCGT-3′ (reverse). After amplification, PCR products were subjected to 1% agarose gel electrophoresis, and visualized by ethidium bromide staining. The relative density of bands was analyzed under ultraviolet light (Bio-Rad). Experiments were repeated three times for reproducibility.

[4] = tested on: mitochondrial respiration complex I; assay: Brain mitochondrial respiration, complex I (pyruvate + malate), respiration control ratio; settings: iNOSKO mice, 3 hours after treatment
Protocol: Mice were perfused via cardiac puncture with cold mitochondrial isolation buffer, the brain promptly removed, the cerebellum dissected away, and mitochondria immediately isolated from the freshly brain by a modification of the method described by Mattiazzi et al. (2002). Brain mitochondria were isolated in cold mitochondrial isolation buffer, containing 0.07 M sucrose, 0.22 M mannitol, 20 mM HEPES, 1 mM EGTA, and 1% bovine serum albumin, pH 7.2. Tissues were homogenized with a Dounce homogenizer and centrifuged at 1,500×g at 4° C. for 5 minutes before transferring the supernatant. The pellets were resuspended and centrifuged at 1,500×g at 4° C. for 5 minutes. The supernatants were combined and centrifuged at 13,500×g at 4° C. for 10 minutes. Mitochondrial pellets were washed twice and finally resuspended in 50-100 μL cold isolation buffer. Protein concentration of isolated mitochondria was determined by the Bradford assay (Bradford, 1976). The final protein concentration was 20-40 mg/ml.
Mitochondrial respiration was determined using Clark-type polarographic oxygen sensors (Hansatech Instruments, Kings Lynn, Norfolk, UK) to measure the rate of oxygen consumption. Freshly isolated mitochondria were suspended in respiration buffer at a concentration of 0.5 mg mitochondrial protein per mL of respiration buffer, which consists of 0.25 M sucrose, 50 mM HEPES, 1 mM EGTA, 10 mM KH2PO4, and 2 mM MgCl2, pH 7.4. Oxygen consumption was measured with either pyruvate (10 mM) plus malate (10 mM) or succinate (10 mM) as substrates for respiration from complex I or complex II in the absence of exogenous ADP (state II) and after addition of 300 mM ADP (state III respiration). Rotenone (5 μM) was added to the reaction to inhibit respiration from complex I when succinate was used as the substrate. […] FCCP (1 μM), an uncoupling agent, was added as a control of respiration. Respiration control ratios (RCR) were calculated as the ratios of state III and state II respiration as described previously by Estabrook (1967). The unit for state II rate and state III rate is nmole/min/mg protein.
Mice were perfused via cardiac puncture with cold mitochondrial isolation buffer, the brain promptly removed, the cerebellum dissected away, and mitochondria immediately isolated from the freshly brain by a modification of the method described by Mattiazzi et al. (2002). Brain mitochondria were isolated in cold mitochondrial isolation buffer, containing 0.07 M sucrose, 0.22 M mannitol, 20 mM HEPES, 1 mM EGTA, and 1% bovine serum albumin, pH 7.2. Tissues were homogenized with a Dounce homogenizer and centrifuged at 1,500×g at 4° C. for 3 minutes before transferring the supernatant fluid. The pellets were resuspended and centrifuged at 1,500×g at 4° C. for 3 minutes. The supernatant fluids were combined and centrifuged at 1,500×g at 4° C. for 3 minutes. These supernatant fluids were then centrifuged at 13,500×g at 4° C. for 10 minutes. Mitochondrial pellets were washed twice and finally resuspended in 50-100 μL cold isolation buffer. Protein concentration of isolated mitochondria was determined by the Bradford assay (Bradford, 1976).
Mitochondrial respiration was determined using Clark-type polarographic oxygen sensors (Hansatech Instruments, UK) to measure the rate of oxygen consumption. Freshly-isolated mitochondria were suspended in respiration buffer at a concentration of 0.5 mg mitochondrial protein/mL respiration buffer, which consisted of 0.25 M sucrose, 50 mM HEPES, 1 mM EGTA, 10 mM KH2PO4, 2 mM MgCl2 and 0.2% BSA, pH 7.4. Oxygen consumption was measured with either pyruvate (10 mM) or pyruvate plus malate (10 mM) as substrates for respiration from complex I, in the absence of exogenous ADP (state II), and after addition of 300 mM ADP (state III respiration). […] FCCP (1 μM), an uncoupling agent, was added as a control respiration. Respiration control ratios (RCR) were calculated as the ratios of state III and state II respiration.

`COC(=O)[C@@H](N)CCCNC(=N)N[N+](=O)[O-]` [L-NAME, NG-nitro-L-arginine-methyl esther] was tested, and the “MnSOD activity in brain vs saline- or ADR-treated mice” value ([1]; L-NAME 10 mg/kg i.p.) was “led to increased MnSOD activity” and the “Effect on ADR-induced MnSOD inactivation” value ([1]; L-NAME with ADR) was “prevented MnSOD inactivation”.

In the case of TNF-α, the “TNF α level in serum (circulating TNF α)” value ([2]; wild-type mice, 3 hours after single i.p. treatment, vs saline control) is reported as “increased” and the “iNOS mRNA levels in brain tissues” value [3] is reported as “significantly increased”.

For `NCCCN(CCCN)/[N+]([O-])=N/O` [DPTA NONOate, dipropylenetriamine NONOate], the “TNF-α level in serum (circulating TNF-α)” value ([2]; iNOSKO mice, 3 hours after treatment) was “did not lead to changes; also recorded: had no effect” and the “Brain mitochondrial respiration complex I (RCR)” value [4] was “significantly lowered; also recorded: causes mitochondrial dysfunction”.

In the case of lipopolysaccharide [LPS], the “iNOS mRNA levels in brain tissues” value [3] is reported as “significantly increased”.
